Data published in patent US20240246946A1, “MODULATORS OF TREX1” (Constellation Pharmaceuticals, Inc., priority 2021, published 2024).

Experiments:
[1] = molecular target: T1, human TREX2 (residues M44-A279) (Homo sapiens, UniProt Q9BQ50); experiment: hTREX2 Biochemical Assay (fluorescence, dsDNA substrate degradation); details: biochemical selectivity for hTREX1 vs hTREX2
T1 construct: human TREX2 (residues M44-A279, expressed in E. coli); made in house; host or cells: E. coli
T1 sequence (Q9BQ50 44-279 isoform Q9BQ50-1): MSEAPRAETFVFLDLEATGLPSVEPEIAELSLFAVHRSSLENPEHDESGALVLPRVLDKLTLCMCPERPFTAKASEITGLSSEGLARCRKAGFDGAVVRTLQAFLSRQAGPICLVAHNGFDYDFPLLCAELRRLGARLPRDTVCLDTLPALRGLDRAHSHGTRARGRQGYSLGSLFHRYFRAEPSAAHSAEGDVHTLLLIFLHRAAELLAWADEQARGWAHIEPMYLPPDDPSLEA
Outline: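 Fluorogenic dsDNA degradation read at 615 nm (570 nm excitation) after EDTA quench. Final 60 nM substrate, 50 pM His-Tev-tagged enzyme, 5 mM MgCl2, pH 7.4, 1.0% DMSO; 4 h compound–enzyme preincubation then 18 h reaction, both 25 °C; 10-point titration.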

[2] = molecular target: T2, full length human TREX1 (Homo sapiens, UniProt Q9NSU2); experiment: hTREX1 Biochemical Assay (fluorescence, dsDNA substrate degradation); details: biochemical, read-out: hTREX1 IC50
T2 construct: N-terminally His-Tev tagged full length human TREX1; made in house; host or cells: E. coli
T2 sequence (Q9NSU2 1-314): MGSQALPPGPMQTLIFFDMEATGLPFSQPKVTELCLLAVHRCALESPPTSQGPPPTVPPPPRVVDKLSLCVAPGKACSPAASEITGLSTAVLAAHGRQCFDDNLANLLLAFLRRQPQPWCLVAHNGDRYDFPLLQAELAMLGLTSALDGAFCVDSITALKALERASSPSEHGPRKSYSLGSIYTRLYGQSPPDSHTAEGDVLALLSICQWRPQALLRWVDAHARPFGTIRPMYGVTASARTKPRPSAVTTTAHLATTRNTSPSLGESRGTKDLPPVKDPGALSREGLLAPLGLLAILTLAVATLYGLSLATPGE
Outline: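 Fluorescence rises as enzyme degrades a quenched TEX615-labelled dsDNA substrate (60 nM) in 50 mM Tris, 150 mM NaCl, 5 mM MgCl2, pH 7.4. Full-length His-Tev-tagged human TREX1, 4 pM, sits with compound 4 hours at 25° C before substrate; reaction 18 hours, stopped with EDTA.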

[3] = molecular target: T3, full length mouse TREX1 (Mus musculus, UniProt Q91XB0); experiment: mTREX1 Biochemical Assay (fluorescence, dsDNA substrate degradation); details: biochemical, read-out: mTREX1 IC50
T3 construct: N-terminally His-Tev tagged full length mouse TREX1; made in house; host or cells: E. coli
T3 sequence (Q91XB0 1-314): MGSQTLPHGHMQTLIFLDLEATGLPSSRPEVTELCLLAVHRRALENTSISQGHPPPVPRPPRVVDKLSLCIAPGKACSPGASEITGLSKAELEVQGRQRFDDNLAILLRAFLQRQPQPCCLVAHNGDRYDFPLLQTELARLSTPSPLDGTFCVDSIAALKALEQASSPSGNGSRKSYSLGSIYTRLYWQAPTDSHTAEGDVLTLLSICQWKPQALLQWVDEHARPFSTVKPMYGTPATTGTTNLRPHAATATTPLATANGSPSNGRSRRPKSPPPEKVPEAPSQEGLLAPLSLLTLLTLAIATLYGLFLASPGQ
Outline: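 Reaction run 18 h at 25° C. with 60 nM TEX615/quencher-labelled dsDNA and 6 pM mouse TREX1 in Tris buffer (pH 7.4, 5 mM MgCl2, 1.0% DMSO), enzyme having sat 4 h with compound across 10 concentrations. EDTA quench; substrate degradation measured as fluorescence increase.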

[4] = molecular target: T4, hTREX1 (Homo sapiens, UniProt Q9NSU2); experiment: hTREX1 HCT116 Cell Assay (HCT116 dual cells, Lucia luciferase reporter of Type I interferon induction); assay type: cell-based; details: TREX1i 4 h before pBR322/BstNI transfection, read after 48 h
T4 construct: host or cells: HCT116 dual cells
T4 sequence (Q9NSU2 1-314): T2 sequence (Q9NSU2 1-314)
Source text: HCT116 dual cells (Invivogen, San Diego, CA, USA) are derived from the human HCT116 colorectal carcinoma cell line. Cells have been selected for the stable integration of SEAP and Luciferase reporter genes, which expression is under the control of 5 tandem response elements for NF-KB/AP1 and STAT1/STAT2, respectively. The cell line was used to monitor Type I interferon induction and subsequent signaling by measuring the activity of the Lucia luciferase secreted in the culture medium.
HCT116 cells were plated in 96-well plate(s) at 40,000 cells/well in 100 uL DMEM supplemented with 10% FBS and 25 mM Hepes (pH 7.2-7.5). After overnight settling, cells were treated with TREX1i for 4 h (maximum DMSO fraction was 0.1%) before 1 ug/mL pBR322/BstNI restriction digest (New England Biolabs, Ipswich, MA, USA) was transfected with Lipofectamine LTX (ThermoFisher, Grand Island, NY, USA), according to product manual recommendations. Briefly, Lipofectamine LTX (0.35 uL/well) was diluted in OptiMEM (5 uL/well). pBR322/BstNI (100 ng/well) was diluted in OptiMEM (5 uL/well) before Plus reagent (0.1 uL/100 ng DNA) was added. After 5 min incubation at room temperature, the DNA mixture was mixed dropwise with the diluted Lipofectamine LTX. After an additional 10 min incubation, the transfection mix (10 uL/well) was added to the cells. Cells were maintained at 37 C for 48 h before monitoring the Lucia Luciferase activity from the cell culture medium.

CC(c1nc(C(=O)Nc2cnoc2)c(O)c(=O)n1C)C(c1cn[nH]c1)c1ccccc1C#N (single isomer, unassigned) [Example 12 D2E1]
hTREX1 vs hTREX2 selectivity [1]: C (C = >50 fold selective for hTREX1)
IC50 [2]: 1 to 10 nM
IC50 [3]: > 10 nM
IC50 [4]: > 100 nM

CCn1cc(C(c2ccccc2C#N)C(C)c2nc(C(=O)Nc3cnoc3)c(O)c(=O)n2C)cn1 (single isomer, unassigned) [Example 13 D2E1]
hTREX1 vs hTREX2 selectivity [1]: B (B = 25 to 50-fold selective for hTREX1)
IC50 [2]: 1 to 10 nM
IC50 [3]: > 10 nM
IC50 [4]: > 100 nM

CC(c1nc(C(=O)Nc2cnoc2)c(O)c(=O)n1C)C(c1cnn(C)c1)c1ccc(F)cc1C#N (single isomer, unassigned) [Example 15 D1E1]
hTREX1 vs hTREX2 selectivity [1]: C (C = >50 fold selective for hTREX1)
IC50 [2]: < 1 nM
IC50 [3]: 1 to 10 nM
IC50 [4]: < 10 nM

CC(c1nc(C(=O)Nc2cnoc2)c(O)c(=O)n1C)C(c1cnn(CCN2CCOCC2)c1)c1ccccc1C#N (single isomer, unassigned) [Example 20 D1E1]
hTREX1 vs hTREX2 selectivity [1]: C (C = >50 fold selective for hTREX1)
IC50 [2]: < 1 nM
IC50 [3]: 1 to 10 nM
IC50 [4]: 10 to 100 nM

CC(c1nc(C(=O)Nc2cnoc2)c(O)c(=O)n1C)C(c1cnn(CCN2CCN(C(=O)OC(C)(C)C)CC2)c1)c1ccccc1C#N (single isomer, unassigned) [Example 21 D1E1]
hTREX1 vs hTREX2 selectivity [1]: C (C = >50 fold selective for hTREX1)
IC50 [2]: < 1 nM
IC50 [3]: 1 to 10 nM
IC50 [4]: 10 to 100 nM

COCCCn1cc(C(c2ccccc2C#N)C(C)c2nc(C(=O)Nc3cnoc3)c(O)c(=O)n2C)cn1 (single isomer, unassigned) [Example 24 D1E1]
hTREX1 vs hTREX2 selectivity [1]: C (C = >50 fold selective for hTREX1)
IC50 [2]: < 1 nM
IC50 [3]: < 1 nM
IC50 [4]: < 10 nM

CC(c1nc(C(=O)Nc2cnoc2)c(O)c(=O)n1C)C(c1cnn(C)c1)c1cc(F)c(F)cc1C#N (single isomer, unassigned) [Example 25 D1E1]
hTREX1 vs hTREX2 selectivity [1]: C (C = >50 fold selective for hTREX1)
IC50 [2]: < 1 nM
IC50 [3]: 1 to 10 nM
IC50 [4]: < 10 nM

CC(c1nc(C(=O)Nc2cnoc2)c(O)c(=O)n1C)C(c1cnn(C)c1)c1ccc(Cl)cc1C#N (single isomer, unassigned) [Example 27 D1E1]
hTREX1 vs hTREX2 selectivity [1]: C (C = >50 fold selective for hTREX1)
IC50 [2]: < 1 nM
IC50 [3]: < 1 nM
IC50 [4]: < 10 nM

CC(c1nc(C(=O)Nc2cnoc2)c(O)c(=O)n1C)C(c1cnn(C)c1)c1cc(C(F)(F)F)ccc1C#N (single isomer, unassigned) [Example 29 D1E1]
hTREX1 vs hTREX2 selectivity [1]: C (C = >50 fold selective for hTREX1)
IC50 [2]: < 1 nM
IC50 [3]: 1 to 10 nM
IC50 [4]: < 10 nM

CC(c1nc(C(=O)Nc2cnoc2)c(O)c(=O)n1C)C(c1cnn(C)c1)c1ccc(C(F)(F)F)cc1C#N (single isomer, unassigned) [Example 30 D1E1]
hTREX1 vs hTREX2 selectivity [1]: C (C = >50 fold selective for hTREX1)
IC50 [2]: < 1 nM
IC50 [3]: < 1 nM
IC50 [4]: < 10 nM

CC(c1nc(C(=O)Nc2cnoc2)c(O)c(=O)n1C)C(c1cnn(CCN(C)C)c1)c1ccccc1C#N (single isomer, unassigned) [Example 33 D1E1]
hTREX1 vs hTREX2 selectivity [1]: C (C = >50 fold selective for hTREX1)
IC50 [2]: 1 to 10 nM
IC50 [3]: 1 to 10 nM
IC50 [4]: > 100 nM

CC(c1nc(C(=O)Nc2cnoc2)c(O)c(=O)n1C)C(c1cnn(CCO)c1)c1ccccc1C#N (single isomer, unassigned) [Example 35 D1E1]
hTREX1 vs hTREX2 selectivity [1]: C (C = >50 fold selective for hTREX1)
IC50 [2]: < 1 nM
IC50 [3]: 1 to 10 nM
IC50 [4]: > 100 nM

Cn1cc(C(c2ccccc2C#N)C(c2nc(C(=O)Nc3cnoc3)c(O)c(=O)n2C)C(F)(F)F)cn1 (single isomer, unassigned) [Example 40 D1E2]
hTREX1 vs hTREX2 selectivity [1]: B (B = 25 to 50-fold selective for hTREX1)
IC50 [2]: < 1 nM
IC50 [3]: 1 to 10 nM
IC50 [4]: > 100 nM

Cc1nn(C)cc1C(c1ccccc1C#N)C(c1nc(C(=O)Nc2cnoc2)c(O)c(=O)n1C)C(F)(F)F (single isomer, unassigned) [Example 41 D1E2]
hTREX1 vs hTREX2 selectivity [1]: C (C = >50 fold selective for hTREX1)
IC50 [2]: < 1 nM
IC50 [3]: 1 to 10 nM
IC50 [4]: < 10 nM

Cc1nn(C)cc1C(c1cc(F)ccc1C#N)C(c1nc(C(=O)Nc2cnoc2)c(O)c(=O)n1C)C(F)(F)F (single isomer, unassigned) [Example 42 D1E2]
hTREX1 vs hTREX2 selectivity [1]: C (C = >50 fold selective for hTREX1)
IC50 [2]: < 1 nM
IC50 [3]: 1 to 10 nM
IC50 [4]: 10 to 100 nM

Cc1ncc(C(c2ccccc2Cl)C(C)c2nc(C(=O)Nc3cnoc3)c(O)c(=O)n2C)cn1 (single isomer, unassigned) [Example 44 D1E2]
hTREX1 vs hTREX2 selectivity [1]: B (B = 25 to 50-fold selective for hTREX1)
IC50 [2]: 1 to 10 nM
IC50 [3]: 1 to 10 nM
IC50 [4]: 10 to 100 nM

CC(c1nc(C(=O)Nc2cnoc2)c(O)c(=O)n1C)C(c1ccccc1Cl)n1cccn1 (single isomer, unassigned) [Example 45 D1E1]
hTREX1 vs hTREX2 selectivity [1]: B (B = 25 to 50-fold selective for hTREX1)
IC50 [2]: 1 to 10 nM
IC50 [3]: > 10 nM
IC50 [4]: > 100 nM

Cc1nn(C)cc1C(c1cc(F)ccc1C#N)C(C)c1nc(C(=O)Nc2cnoc2)c(O)c(=O)n1C (single isomer, unassigned) [Example 57 D1E1]
hTREX1 vs hTREX2 selectivity [1]: C (C = >50 fold selective for hTREX1)
IC50 [2]: 1 to 10 nM
IC50 [3]: > 10 nM
IC50 [4]: 10 to 100 nM

CCn1cc(C(c2cc(F)ccc2Cl)C(C)c2nc(C(=O)Nc3cnoc3)c(O)c(=O)n2C)cn1 (single isomer, unassigned) [Example 60 D1E1]
hTREX1 vs hTREX2 selectivity [1]: B (B = 25 to 50-fold selective for hTREX1)
IC50 [2]: < 1 nM
IC50 [3]: 1 to 10 nM
IC50 [4]: 10 to 100 nM

Cc1cc(C(c2ccccc2C#N)C(C)c2nc(C(=O)Nc3cnoc3)c(O)c(=O)n2C)n(C)n1 (single isomer, unassigned) [Example 63 D1E1]
hTREX1 vs hTREX2 selectivity [1]: C (C = >50 fold selective for hTREX1)
IC50 [2]: < 1 nM
IC50 [3]: 1 to 10 nM
IC50 [4]: < 10 nM

COCCn1ncc(C(c2ccccc2C#N)C(C)c2nc(C(=O)Nc3cnoc3)c(O)c(=O)n2C)c1C (single isomer, unassigned) [Example 69 D1E1]
hTREX1 vs hTREX2 selectivity [1]: B (B = 25 to 50-fold selective for hTREX1)
IC50 [2]: 1 to 10 nM
IC50 [3]: 1 to 10 nM
IC50 [4]: 10 to 100 nM
